Results on 19 compounds are retold here after ChEMBL document CHEMBL3046301, “A study on the genotoxic activities of some new benzoxazoles” (Med Chem Res, 2007).

In brackets after ≈: the same amount, converted by molar mass.

The subject of data set [1] is Bacillus subtilis. As to the kind of experiment: Genotoxicity in wild type Bacillus subtilis H17 assessed as growth inhibition. To be noted: in vivo. In kind it is toxicity, organism-based.
Data set [2] in a line: Ratio of CR50 for wild type Bacillus subtilis H17 to CR50 for recombination-deficient Bacillus subtilis M45. In kind it is ADME, organism-based.
Data set [3] has as its system Bacillus subtilis. The experiment in a line: Genotoxicity in recombination-deficient Bacillus subtilis M45 assessed as growth inhibition. The note with it: in vivo. The format is toxicity, organism-based.

For `Cc1ccc(Cc2nc3cc(N)ccc3o2)cc1`, the MIC in data set [1] came to 500 µg/mL (≈ 2100 µM); in data set [3], 500 µg/mL. The selectivity ratio in data set [2] is 1.74.

As for `CCc1ccc(-c2nc3cc(NC(=O)Cc4ccc(Br)cc4)ccc3o2)cc1`, the MIC is 500 µg/mL (≈ 1150 µM) in data set [1] and 500 µg/mL in data set [3]. Also, the selectivity ratio in data set [2] came to 0.95.

In the case of `O=[N+]([O-])c1cc[n+]([O-])c2ccccc12` [4-NITROQUINOLINE-1-OXIDE], the MIC was determined as 1000 µg/mL (≈ 5260 µM) in data set [1] and 60 µg/mL in data set [3]. For the same compound, the selectivity ratio in data set [2] is 0.69.

With `CCOc1ccc(Cc2nc3cc([N+](=O)[O-])ccc3o2)cc1`, the MIC in data set [1] was 500 µg/mL (≈ 1680 µM); in data set [3], 500 µg/mL. The selectivity ratio in data set [2] was found to be 1.27.

For the compound `O=[N+]([O-])c1ccc2oc(-c3ccccc3)nc2c1`, the values for the MIC in data set [1] and in data set [3] were 500 µg/mL (≈ 2080 µM) and 500 µg/mL, respectively. Further, in data set [2], the selectivity ratio was determined as 1.07.

On to `Nc1ccc2oc(Cc3ccc(F)cc3)nc2c1`, for which the MIC was found to be 500 µg/mL (≈ 2060 µM) in data set [1] and 500 µg/mL in data set [3]. Moreover, the selectivity ratio in data set [2] is 1.25.

Consider `Cc1ccc2nc(COc3ccccc3)oc2c1`, for which the MIC worked out at 1000 µg/mL (≈ 4180 µM) in data set [1] and 1000 µg/mL in data set [3]. Also, in data set [2], the selectivity ratio was 0.93.

Take `Nc1ccc2oc(-c3ccc(Br)cc3)nc2c1`: the MIC in data set [1] was 1000 µg/mL (≈ 3460 µM); in data set [3], 1000 µg/mL. For the same compound, the selectivity ratio in data set [2] was found to be 1.05.

In the case of `O=C(Nc1ccc2oc(-c3ccccc3)nc2c1)c1ccc(F)cc1`, the MIC was 1000 µg/mL (≈ 3010 µM) in data set [1] and 500 µg/mL in data set [3]. Besides, the selectivity ratio in data set [2] stood at 1.6.

Take `Clc1ccc2oc(Cc3ccc(Br)cc3)nc2c1`: the results for the MIC in data set [1] and in data set [3] were 1000 µg/mL (≈ 3100 µM) and 1000 µg/mL, respectively. Besides, in data set [2], the selectivity ratio turned out to be 1.05.

As to `Clc1ccc(OCc2nc3cc(Cl)ccc3o2)cc1`, the MIC amounted to 500 µg/mL (≈ 1700 µM) in data set [1] and 500 µg/mL in data set [3]. The selectivity ratio in data set [2] amounted to 1.

For the compound `CNc1ccc(-c2nc3ccccc3o2)cc1`, the MIC in data set [1] is 1000 µg/mL (≈ 4460 µM); in data set [3], 500 µg/mL. Besides, the selectivity ratio in data set [2] stood at 1.5.

As to `Nc1ccc(-c2nc3cc(Cl)ccc3o2)cc1`, the MIC amounted to 2000 µg/mL (≈ 8170 µM) in data set [1] and 2000 µg/mL in data set [3]. In addition, the selectivity ratio in data set [2] is 1.

Take `O=[N+]([O-])c1cc2oc(C3CCCCC3)nc2cc1Cl`: the MIC in data set [1] worked out at 500 µg/mL (≈ 1780 µM); in data set [3], 500 µg/mL. In data set [2], the selectivity ratio was found to be 1.25.

`Cc1ccc2[nH]c(Cc3ccc(Br)cc3)nc2c1`: the MIC amounted to 30 µg/mL (≈ 99.6 µM) in data set [1] and 125 µg/mL in data set [3]. Moreover, in data set [2], the selectivity ratio was 0.49.

In the case of `O=C(Cc1ccc(F)cc1)Nc1ccc2oc(Cc3ccccc3)nc2c1`, the MIC in data set [1] was found to be 500 µg/mL (≈ 1390 µM); in data set [3] it was 500 µg/mL. The selectivity ratio in data set [2] is 0.58.

Consider `Cc1ccc2nc(-c3ccccc3Cl)oc2c1`, for which the MIC in data set [1] came to 125 µg/mL (≈ 513 µM); in data set [3] it was 60 µg/mL. In data set [2], the selectivity ratio was determined as 1.85.

As to `Clc1ccc2[nH]c(CC3CCCCC3)nc2c1`, the MIC in data set [1] amounted to 1000 µg/mL (≈ 4020 µM); in data set [3], 500 µg/mL. In data set [2], the selectivity ratio was 0.93.

On to `Cc1ccc2oc(-c3ccccc3[N+](=O)[O-])nc2c1`, for which the MIC came to 500 µg/mL (≈ 1970 µM) in data set [1] and 500 µg/mL in data set [3]. In addition, the selectivity ratio in data set [2] came out at 0.96.
